Consider 1 compound from patent publication US10632111B2 (priority 2014, dated 2020).

The series in a line: Pharmacokinetic properties in SD rats after intramuscular injection. To be noted: male SD rats, i.m., 90 mg/kg (based on donepezil), oil solvent, plasma, LC/MS/MS. The text has this: Pharmacokinetic Properties of Compounds of the Present Invention Administered to Rats
In the present embodiment, male SD rats (SPF grade), aged […] and weighing 180 to 220 g, were purchased from Shanghai Slack laboratory Animal Co., Ltd. Throughout the process of the experiment, give the rats free access to food and water.
Adopting grouping of random grouping design, the SD rats for experiments were grouped according to gender and body weight.
The whole blood was collected and placed on ice, followed by centrifugation at 4° C., 8000 rpm and 5 min to collect plasma The plasma was transferred to a 96-well plate and stored at −20° C. until LC-MS/MS examination. Drug concentrations in EDTA (4 mM) anticoagulated plasma of SD rats were determined using LC/MS/MS (Agilent6460). Using WinNonlin 5.2 software, calculate respective relevant pharmacokinetic parameters of each group at each time point after administration according to statistical moment theory.
t1/2 was calculated by the formula t1/2=0.693/λz; λz is an end elimination rate constant derived from the logarithmic concentration—the straight part of the end of time curve, which can be derived from the slope of the logarithmic concentration—the straight part of the end of time curve.

As usually defined, the Cmax is the peak of the concentration-time curve. What is called Tmax is the time from dosing to the highest level. Regarding `CCCCCCC(=O)OC1=C(CC2CCN(Cc3ccccc3)CC2)Cc2cc(OC)c(OC)cc21` [Compound 3, Donepezil Heptanoate], where the note is “measured value”, the Cmax was determined as 44.11 ng/mL and the Tmax was determined as 18.00 h. Further, the T1/2 (t1/2=0.693/λz) is 314.18 h.
